Laboratory results reported in article PMC11672137, “High-Affinity Lectin Ligands Enable the Detection of Pathogenic Pseudomonas aeruginosa Biofilms: Implications for Diagnostics and Therapy” (JACS Au, 2024).

Experiments:
LecA [1] = biological target: T1, LecA (Pseudomonas aeruginosa, UniProt Q05097); settings: read-out: Kd by ITC; cited from earlier work
T1 construct: made in house

LecB = biological target: T2, LecB (Pseudomonas aeruginosa, UniProt Q9HYN5); assay: Competitive binding assay based on fluorescence polarization, LecB
T2 construct: made in house
Procedure: LecA competitive binding assay was performed in presence of 2% DMSO, whereas LecB competitive binding assay had less than 0.5% DMSO present. In short, the compound dilution series were prepared in 96 well plates. 10 µL of each dilution in triplicates were mixed with 10 µL of master mix (40 µM LecA, 20 nM galactose-fluorescein reporter ligand S38 or 300 nM LecB and 20 nM S39 in TBS/Ca2+ buffer, Figure S3) in 384-well microtiter plates (Greiner Bio-One, Germany, cat no 781900). The plates were centrifuged (1 min, 500 g), sealed (EASYseal, Greiner Bio-One, cat no 676001) and incubated for 1 h in case of LecA and 6 h in case of LecB in a dark wet chamber under gentle shaking. Fluorescence was measured on a
PheraStar FS plate reader (BMG Labtech GmbH, Germany) with excitation filters at 485 nm and emission filters at 535 nm. The measured intensities were reduced by the blank values (protein in TBS/Ca2+ buffer) and analysed with MARS Data Analysis Software (BMG Labtech GmbH, Germany). IC50 values were determined by the four-parameter variable slope model with the minimum and maximum limits of the fit fixed according to the controls in each assay

[2] = system: P. aeruginosa PAO1 biofilms; assay: In vitro biofilm staining under flow conditions, compound supplementation to the medium; type: cell-based, Pseudomonas aeruginosa; settings: 500 nM in medium, 4 h, 3 mL/h, fluorescence microscope
Procedure: (§1) P. aeruginosa biofilms were grown under flow conditions and observed by fluorescence microscopy in analogy to Ghanbari et al.[66] To this end, P. aeruginosa PAO1 expressing the red fluorescent protein mCherry[56] was diluted to an OD600 nm of 0.1 and injected into the microfluidics device. After a 30-min settling period, biofilms were grown under a constant laminar flow rate of 3 mL/h per channel. Following 48 h of incubation at 30 °C, dense and mature P. aeruginosa PAO1 biofilms were observed, which were then further used for analysis of the imaging probes.
To circumvent these technical drawbacks, the addition of compounds to the medium reservoir and retention at the biofilm was pursued. Imaging compounds were added to the medium reservoirs at a concentration of 500 nM, which were continuously pumped (3 mL/h) through the flow cell for 4 h. Compound accumulation at mature P. aeruginosa biofilms was immediately analyzed using fluorescence microscopy. Afterwards, the medium was exchanged, and the biofilms were washed for 30 min (3 mL/h, no compound) to monitor the retention (Figure 5). Furthermore, an analysis using CLSM was also performed after 4 h of accumulation without washing (Figures 5 and S22).
Figure 5 Staining of P. aeruginosa PAO1 biofilms grown under flow conditions with compound supplementation to the medium. Biofilm staining with (A) fluorescein divalent probe 17, (B) fluorescein control 24, (C) BODIPY divalent probe 19, and (D) BDP FL azide control 18 was monitored after 4 h of accumulation under constant flow (3 mL/h) of LB media containing 500 nM of respective compound. Retention of imaging compounds is shown after a subsequent wash period for 30 min with medium (3 mL/h, no compound). Images were recorded by using a fluorescence microscope. CLSM was performed for (E) BODIPY divalent probe 19 and the control (F) BDP FL azide 18 after 4 h of accumulation. Green signal originates from fluorescently labeled probes 17 and 19 and controls 24 and 18. P. aeruginosa constitutively expressing mCherry from pMP7605^56 is shown in red. Z-Stack size, 2 μm. Scale bar = 50 μm.
In vitro biofilm staining under flow conditions
The flow cell experiment was set up in analogy to Ghanbari et al. and in this study, optimized and established for biofilm staining.25 In principle, the experiment is based on an inlet connected to a medium source, a peristaltic pump providing constant medium flow, a flow chamber enabling analysis of bacterial growth and an outlet (waste container/bottle).
The medium used in the flow system was LB diluted by factor 5 containing 60 µg/mL
Gm. Silicone tubings 1.6 mm (ibidi, Germany) were used transporting medium from inlet to the peristaltic pump (Watson-Marlow Fluid Technology Solutions). Stopper hoses (CarlRoth) placed in peristaltic pump were coupled to silicone tubes via connectors (ibidi, Germany).
Stopper hoses are connected to bubble traps (obtained by Claus Sternberg, DTU Copenhagen) via 0.8 mm silicone tubing (ibidi, Germany). Bubble traps were used to remove air from the medium flow and to avoid biofilm disruption. Downstream from the bubble traps, the flow cell (μ-Slide VI 0.4 ibiTreat, ibidi, Germany) was placed into the system and connected to 1.6 mm silicone tubes (ibidi, Germany). The outlet is leading the medium from flow chamber to a waste […]
In order to inoculate the flow cell with P. aeruginosa PAO1 mCherry (pMP7605)23 the silicone tubes upstream and downstream of the flow chamber were pinched off by using commercial plastic clamps. The medium flow was stopped and the flow cell was inoculated by injecting 300 µL of the bacterial suspension (OD600nm of 0.1) into the silicone tubing upstream of the flow chamber. For this, a cannula (0.30 x 12 mm, Sterican) was used. The injection point was sealed with silicone glue. After bacterial settling time of 30 min, the flow was started again and clamps were removed. Growth temperature was regulated by using a heat system (ibidi, […]
Germany). […]

[3] = system: P. aeruginosa PAO1 biofilms; assay: In vitro biofilm staining under flow conditions, injection method; type: cell-based, Pseudomonas aeruginosa; settings: 17 μM in channel, 10 min incubation, then flow 3 mL/h for 10-20 min
Procedure: as §1
Two different staining methods were evaluated for the imaging of P. aeruginosa PAO1 biofilms: (I) direct injection of the imaging compounds into the flow system or (II) compound supplementation into the medium and gradual accumulation at the biofilm (Figure S18). […] The flow of compounds 17 and 24 and their arrival in the flow cells were monitored using a fluorescence microscope attached to the flow system. […]
Figure 4 Staining of P. aeruginosa PAO1 biofilms under flow following the injection method. […] Pictures of the same aggregates were recorded prior to compound injection (t−10), during a 10 min incubation period without flow (t0) and during the wash period (constant flow, 3 mL/h) at different time points t5, t10, t15, and t20 (5, 10, 15, and 20 min) using a fluorescence microscope. […]

LecA [4] = biological target: T1, LecA; assay: Competitive binding assay based on fluorescence polarization, LecA; settings: LecA 20 µM, reporter ligand S38, 2% DMSO; read-out: IC50 (competitive binding, FP)
Procedure: Next, binding of the optimized divalent ligand 17 and its synthetic precursor 16 to LecA was evaluated by fluorescence polarization-based (FP) assays,[47] SPR, and ITC. […] Therefore, fluorescent ligand 17 was analyzed in a direct binding experiment by FP. […] The dissociation constants for 16 were 47.2 ± 11.3 nM (ITC) and 47.8 ± 44.1 nM (steady-state SPR), while for 17, the values were 64.1 ± 31.1 nM and 79.3 ± 24.9 nM (steady-state SPR). For the SPR experiments, Kd was also determined by single-cycle kinetic analysis resulting in approximately five times higher affinity, but the data have limited reliability due to suboptimal fit for the kinetic curves (Figures S13B and S14).[58]−[60] […]
137 mM NaCl, 2.6 mM KCl at pH 7.4 supplemented with 1 mM CaCl2). Protein concentration was determined by UV spectroscopy at 280 nm using a molar extinction coefficient of 27 960 M-1 cm-1 for LecA and 6 990 M-1 cm-1 for LecB.
All synthesized alkyne precursors (S5m, S5p, S6m, S6p, S11, 25, S16, S22 and S24) were analysed in the previously established competitive binding assays based on fluorescence polarization (Figure S2).18,19 Galactose-based compounds (S5m, S5p, S6m, S6p, S11) were evaluated against LecA and C-glycoside-based compounds […] and S16 against LecB. […]
PheraStar FS plate reader (BMG Labtech GmbH, Germany) with excitation filters at 485 nm and emission filters at 535 nm. […]

T1 sequence (Q05097 whole entry): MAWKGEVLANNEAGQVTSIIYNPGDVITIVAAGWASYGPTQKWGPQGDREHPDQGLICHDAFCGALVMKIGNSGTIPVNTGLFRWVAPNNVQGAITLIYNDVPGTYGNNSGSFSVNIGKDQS
T2 sequence (Q9HYN5 entry or part of it): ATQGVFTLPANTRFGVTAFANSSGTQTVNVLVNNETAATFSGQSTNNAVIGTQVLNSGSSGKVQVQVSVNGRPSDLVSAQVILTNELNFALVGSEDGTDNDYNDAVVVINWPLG

In the case of `OC[C@H]1O[C@@H](Oc2ccccc2)[C@H](O)[C@@H](O)[C@H]1O` [compound 1, phenyl β-D-galactoside], the Kd (LecA [1]) is given as 8.8 µM.

`C#Cc1ccc(S(=O)(=O)NC[C@H]2O[C@@H](C)[C@@H](O)[C@@H](O)[C@@H]2O)s1` [compound 23] gave an IC50 (LecB) of 2.4 ± 0.5 µM.

In the case of `O=C1OC2(c3ccc(O)cc3Oc3cc(O)ccc32)c2ccccc21` [compound 24, fluorescein, reference compound], the “Biofilm staining after accumulation” value [2] is reported as “did not result in any observable staining” and the “Retention of fluorescence at biofilm during wash” value [3] is reported as “completely disappeared after 10 min”.

Work on `O=[N+]([O-])c1ccc(O[C@@H]2O[C@H](CO)[C@H](O)[C@H](O)[C@H]2O)cc1` [para-nitrophenyl β-D-galactoside] yielded an IC50 (LecA [4]) of 39.7 ± 11.5 µM.
